The numbers were not newly measured in US20170049816A1, “Methods of Benchmarking Wellness with a Stable Reactive Oxygen Species Solution” (Reoxcyn Discoveries Group, Inc., priority 2013, published 2017), which cites them from elsewhere.

Each structure is given as a SMILES string.

The conditions of the data set: pH-neutral aqueous solution (pH around 7.0) at room temperature.

Turning to `O=[O+][O-]` [dissolved ozone (O3), ozone], the half-life entry was “about 20 min”.
